Patent US20100015128A1, “GRP78 as a Predictor of Responsiveness to Therapeutic Agents” (UNIVERSITY OF SOUTHERN CALIFORNIA, priority 2006, published 2010)
d = 2'-deoxy (DNA); r = 2'-OH (RNA)

Key:
BIK [1] = assay: BIK protein induction under stress conditions (Western blot); assay type: cell-based, human
Source text: (§1) Cell lines and culture conditions. The estrogen-dependent cell line MCF-7/BUS was provided by A. M. Soto (Tufts University, Medford, Mass.) and has been described (Soto et al., Environ. Health Perspect. 103:113-22 (1995)). The human embryonic kidney 293T cells and MCF-7/BUS cells were maintained in DMEM supplemented with 10% fetal bovine serum. Estrogen starvation of MCF-7/BUS cells was done as described (Hur et al., PNAS 101:2351-6 (2004)). Briefly, the cells were washed thrice with phenol red-free DMEM and incubated in washing medium at 37° C. for 60 minutes. The MCF-7/BUS cells were then cultured in phenol red-free DMEM supplemented with 5% charcoal/dextran-stripped fetal bovine serum for 24 to 72 hours as indicated. For etoposide treatment, the cells were incubated with 50 μmol/L etoposide for 6 hours and cultured for another 24 hours before harvest.
(§2) Western blots and quantitation. The Western blots were done as described (Lee, Methods 35:373-81 (2005)). The primary antibodies were goat anti-BIK (N-19, Santa Cruz Biotechnology, Santa Cruz, Calif.), rat anti-Grp78 (76-E6, Santa Cruz Biotechnology), rat anti-GRP94, rabbit anti-calnexin, rabbit anti-calreticulin (Stressgen, Ann Arbor, Mich.), mouse anti-Flag M2, mouse anti-poly(ADP-ribose) polymerase (PARP; F-2, Santa Cruz Biotechnology, Santa Cruz, Calif.), and mouse anti-h-actin (Sigma-Aldrich, St. Louis, Mo.). Anti-h-actin was diluted at 1:2,000; anti-BIK at 1:500; and other antibodies at 1:1,000. Respective horseradish peroxidase-conjugated secondary antibodies (Santa Cruz Biotechnology, Santa Cruz, Calif.) at 1:1,000 dilution were used. The Western blots were quantitated by Fluor-S® MultiImager (Bio-Rad, Hercules, Calif.) according to the manufacturer's instructions. All quantitations were normalized against h-actin.

Flag-tagged BIK-b5TM = Flag-tagged BIK-b5TM (UniProt Q13323); assay: cell-based or functional assay
endogenous BIK (human) = endogenous BIK (human) (UniProt Q13323); assay: cell-based or functional assay
GRP94 [2] = assay: siRNA knockdown in MCF-7/BUS cells, Western blot for GRP94; assay type: cell-based, human; settings: transient transfection
Source text: as §2
(§3) Small interfering RNA. The siRNA against Grp78 is 5′-gagcgcauugauacuagadTdT-3′ (SEQ ID NO:1) as described (Tsutsumi et al., Oncogene 25:1018-29 (2006)). The siRNA against Bik is 5′-[…]-3′ (SEQ ID NO:2) (Hur et al., PNAS 101:2351-6 (2004)). The control siRNA is Silencer Negative Control #3 siRNA (Ambion, Foster City, Calif.) composed of a 19-bp scrambled sequence without significant homology to any known gene sequences from mouse, rat, or human. […]

GRP78 = assay: siRNA knockdown in MCF-7/BUS cells, Western blot for Grp78; assay type: cell-based, human; settings: transient transfection, vs control siRNA
Source text: as §2, §3

PARP = PARP cleavage by Western blot in estrogen-starved cells; assay type: cell-based, human; settings: MCF-7/BUS cells, estrogen starvation; for PARP cleavage: vs control siRNA
Experimental: In FIG. 8A, cell lysates from MCF-7/BUS cells transfected with siGrp78 oligomers or control siRNA (siCtrl) for 24 hours and subsequently cultured in regular or estrogen-free medium (ES) for 24 hours were subjected to SDS-PAGE and Western blotting to probe for levels of GRP78, GRP94 and β-actin. In FIG. 8B, MCF-7/BUS cells were cultured either in regular or in estrogen-free (ES) medium for 24 hours after transfection of siGrp78 or siCtrl as indicated. The percent of apoptotic cells was assessed by mitochondrial membrane potential staining. The standard errors are indicated. In FIG. 8C, MCF-7/BUS cells were transfected with control siRNA, siGrp78, or siBik, alone or in combination as indicated for 24 hours and then cultured in ES medium for 24 hours. The total amount of siRNA in each condition was adjusted to be the same by addition of siCtrl. Cell lysates were collected and subjected to SDS-PAGE and probed for levels of GRP78, BIK and β-actin by Western blotting. In FIG. 8D, cell lysates from FIG. 8C were subjected to SDS-PAGE and Western blotted with anti-PARP antibody. The Western signal of full-length PARP and apoptosis-signature fragment were quantitated by Fluor-S™ MultiImager (Bio-Rad, Hercules, Calif.). The relative PARP cleavages are shown with the PARP cleavage in cells transfected with control siRNA set as 1. Columns in FIGS. 8B and 8D represent the mean from three or two experiments, respectively. Standard error: * p<0.05, ** p<0.01.
Cell lines and culture conditions. The estrogen-dependent cell line MCF-7/BUS was provided by A. M. Soto (Tufts University, Medford, Mass.) and has been described (Soto et al., Environ. Health Perspect. 103:113-22 (1995)). The human embryonic kidney 293T cells and MCF-7/BUS cells were maintained in DMEM supplemented with 10% fetal bovine serum. […]
Western blots and quantitation. […] The Western blots were quantitated by Fluor-S® MultiImager (Bio-Rad, Hercules, Calif.) according to the manufacturer's instructions. All quantitations were normalized against h-actin.

MCF-7/BUS cells = assay: Mitochondrial membrane potential staining (apoptosis); assay type: cell-based, human
Source text: as §1
For construction of the adenovirus expression vectors, either GFP or a His-tagged full-length hamster Grp78 cDNA was subcloned into an adenoviral vector and its expression was driven by the cytomegalovirus promoter. […] For mitochondrial membrane potential staining, because GFP interferes with the green fluorescence of this assay, the adenovirus empty vector was used as the negative control. […]
Cell death and apoptotic assays. […] The cell cultures were then washed with PBS and examined under a fluorescence microscope. […]

BIK [3] = assay: siRNA knockdown in MCF-7/BUS cells, Western blot for BIK; assay type: cell-based, human; settings: estrogen starvation, vs control siRNA
Source text: as §2, §3

GRP94 [4] = target: GRP94 (human, UniProt P14625 22-803); assay: co-immunoprecipitation with anti-BIK from 293T lysate, Western blot
Experimental: (§4) FIGS. 5A to 5D show selective association of endogenous BIK with GRP78. In FIG. 5A, 293T cells were either non-treated or treated with 50 μM etoposide (Etop) for 6 hours and were harvested 24 hours later. MCF-7/BUS cells were cultured either in regular DMEM or in estrogen-free DMEM for 48 hours. Western blots of total protein lysates from these cells were performed with antibodies against BIK and β-actin. In FIG. 5B, cell lysates prepared from control and Etop-treated 293T cells were immunoprecipitated with anti-BIK or normal IgG The immunoprecipitates were applied in parallel with input lysates to SDS-PAGE and Western blotted with antibodies against GRP78, GRP94, calnexin, calreticulin and BIK. […] In FIG. 5D, lysates of 293T cells were incubated with GST-GRP78, GST-BIK, or GST linked beads. The bound proteins were resolved by SDS-PAGE and probed for GRP78 or BIK by Western blotting.
(§5) Communoprecipitation assays. The coimmunoprecipitation assays were done as described (Reddy et al., J. Biol. Chem. 278:20915-24 (2003)). Briefly, 500 μg of total protein extract from each sample were pretreated with protein G-Sepharose beads (Upstate, Chicago, Ill.), followed by incubation with 5 Ag of goat anti-BIK antibody (N-19, Santa Cruz Biotechnology, Santa Cruz, Calif.) or mouse anti-Flag M2 antibody (Sigma-Aldrich, St. Louis, Mo.). For negative controls, the respective goat or mouse immunoglobulin G (IgG; Santa Cruz Biotechnology, Santa Cruz, Calif.) was used.

calreticulin = target: T1, calreticulin (human, UniProt P27797 18-417); assay: as above
T1 sequence (looked up): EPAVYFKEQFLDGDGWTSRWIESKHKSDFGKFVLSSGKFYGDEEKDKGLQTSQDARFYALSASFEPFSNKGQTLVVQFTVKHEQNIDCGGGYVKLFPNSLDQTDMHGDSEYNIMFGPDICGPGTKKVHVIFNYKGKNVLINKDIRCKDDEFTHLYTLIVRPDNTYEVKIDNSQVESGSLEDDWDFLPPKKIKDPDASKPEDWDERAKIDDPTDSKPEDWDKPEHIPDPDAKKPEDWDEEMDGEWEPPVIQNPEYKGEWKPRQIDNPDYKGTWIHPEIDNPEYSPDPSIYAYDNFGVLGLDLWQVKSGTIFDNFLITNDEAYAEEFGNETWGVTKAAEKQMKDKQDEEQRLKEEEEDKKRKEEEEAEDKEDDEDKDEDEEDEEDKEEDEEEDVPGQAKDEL
Experimental: as §4, §5

calnexin = target: T2, calnexin (human, UniProt P27824 21-592); assay: as above
T2 sequence (looked up): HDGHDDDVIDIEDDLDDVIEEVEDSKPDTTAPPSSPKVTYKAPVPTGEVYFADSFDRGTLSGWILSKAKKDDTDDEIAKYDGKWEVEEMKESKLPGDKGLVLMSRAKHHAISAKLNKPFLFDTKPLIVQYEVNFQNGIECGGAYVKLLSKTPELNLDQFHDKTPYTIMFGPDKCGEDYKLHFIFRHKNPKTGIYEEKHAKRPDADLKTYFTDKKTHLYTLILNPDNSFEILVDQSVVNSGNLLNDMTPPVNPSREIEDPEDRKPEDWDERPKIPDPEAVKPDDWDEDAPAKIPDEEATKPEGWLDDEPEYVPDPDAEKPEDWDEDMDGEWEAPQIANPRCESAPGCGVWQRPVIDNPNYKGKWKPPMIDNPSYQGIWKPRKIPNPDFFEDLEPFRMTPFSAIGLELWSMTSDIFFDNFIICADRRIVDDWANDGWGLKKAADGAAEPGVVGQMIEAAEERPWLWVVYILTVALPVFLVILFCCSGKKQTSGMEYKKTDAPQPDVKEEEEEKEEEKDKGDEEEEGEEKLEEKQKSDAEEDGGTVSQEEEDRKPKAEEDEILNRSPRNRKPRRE
Experimental: as §4, §5

GST protein = target: T3, GST protein (UniProt P08515 1-218 = GST); assay: GST pull-down from 293T total cell extract, Western blot
T3 construct: Negative control in the pull-down assays; also called Glutathione S-transferase
Experimental: as §4
Glutathione S-transferase pull-down assays. Glutathione S-transferase (GST)-Grp78 and GST-BIK were constructed by subcloning full-length hamster Grp78 cDNA and human BIK into the BamH1/XhoI and BamH1/Sal1 sites of pGEX 4T1, respectively (Pharmacia Biotech, Piscataway, N.J.). Conditions for the GST pull-down assays have been described (Wu and Lee, Nucleic Acids Res. 26:4837-45 (1998)) with the following modifications. […]

GRP94 (human, UniProt P14625 22-803), sequence (P14625 22-803 limits assumed): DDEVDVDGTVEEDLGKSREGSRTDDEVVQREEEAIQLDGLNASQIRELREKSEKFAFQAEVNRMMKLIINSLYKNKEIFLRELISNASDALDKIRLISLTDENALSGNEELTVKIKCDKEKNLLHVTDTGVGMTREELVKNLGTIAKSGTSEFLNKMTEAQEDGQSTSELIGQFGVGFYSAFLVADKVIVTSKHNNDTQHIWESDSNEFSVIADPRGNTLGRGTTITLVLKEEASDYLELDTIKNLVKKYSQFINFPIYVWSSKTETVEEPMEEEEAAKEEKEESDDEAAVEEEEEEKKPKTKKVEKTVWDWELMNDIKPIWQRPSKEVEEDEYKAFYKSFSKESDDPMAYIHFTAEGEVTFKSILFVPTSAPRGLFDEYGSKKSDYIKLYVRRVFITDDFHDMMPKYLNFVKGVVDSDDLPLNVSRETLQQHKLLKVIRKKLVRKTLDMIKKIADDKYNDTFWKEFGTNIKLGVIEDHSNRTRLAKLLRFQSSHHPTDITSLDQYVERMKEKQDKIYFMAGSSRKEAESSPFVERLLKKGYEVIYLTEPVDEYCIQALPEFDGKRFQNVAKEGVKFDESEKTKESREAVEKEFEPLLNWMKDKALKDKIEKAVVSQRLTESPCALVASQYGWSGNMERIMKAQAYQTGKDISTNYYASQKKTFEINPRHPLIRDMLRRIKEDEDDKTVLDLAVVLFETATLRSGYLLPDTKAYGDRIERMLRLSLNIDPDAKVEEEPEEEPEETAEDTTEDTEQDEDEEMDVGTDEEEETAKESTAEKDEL
T3 sequence (P08515 whole entry): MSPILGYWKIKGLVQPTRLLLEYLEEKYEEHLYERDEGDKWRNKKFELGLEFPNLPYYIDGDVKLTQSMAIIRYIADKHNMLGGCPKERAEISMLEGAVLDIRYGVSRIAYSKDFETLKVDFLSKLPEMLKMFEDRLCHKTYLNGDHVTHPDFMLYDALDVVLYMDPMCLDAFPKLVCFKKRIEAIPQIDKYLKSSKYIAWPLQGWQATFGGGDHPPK

tunicamycin
induction of BIK by ER stress inducers (BIK [1]; human cells): do not induce

His-tagged Grp78
fold decrease in apoptosis (mitochondrial membrane potential staining) in transfected 293T cells (Flag-tagged BIK-b5TM): 3 fold

His-tagged full-length hamster Grp78 (Ad-Grp78) (from UniProt P07823 19-654)
decrease in BAX activation by estrogen starvation (FACS with BAX conformation specific antibody) in MCF-7/BUS cells (endogenous BIK (human)): 48%

siRNA against Grp78: siRNA 5′-gagcgcauugauacuagadTdT-3′ (SEQ ID NO:1) (guide GAGCGCAUUGAUACUAGATT; sugars from the 5' end r18 d2, backbone not given here)
expression of GRP94 (GRP94 [2]): no effect | level of Grp78 protein (GRP78): substantially reduced | PARP cleavage (PARP): increased | effect on mitochondrial membrane potential (MCF-7/BUS cells; MCF-7/BUS cells in normal culture medium): little effect | apoptosis (MCF-7/BUS cells; MCF-7/BUS cells, estrogen starvation 24 hours, vs control siRNA): marked increase

COc1cc([C@@H]2c3cc4c(cc3[C@@H](O[C@@H]3O[C@@H]5CO[C@@H](C)O[C@H]5[C@H](O)[C@H]3O)[C@H]3COC(=O)[C@H]23)OCO4)cc(OC)c1O [etoposide]
level of BIK protein (BIK [1]; 293T cells, 50 μmol/L etoposide 6 hours, harvested 24 hours later): substantially elevated

siRNA against Bik: siRNA 5′-aagaccccucuccagagacau-3′ (SEQ ID NO:2) (AAGACCCCUCUCCAGAGACAU; RNA, backbone not given here)
expression of BIK protein (BIK [3]): substantially reduced | enhanced PARP cleavage mediated by knockdown of Grp78 (PARP; BIK knockdown combined with Grp78 knockdown): substantially reduced | PARP cleavage (PARP): decreased

B1: endogenous BIK (other, human, UniProt Q13323 1-160, looked up)
chain: MSEVRPLSRDILMETLLYEQLLEPPTMEVLGMTDSEEDLDPMEDFDSLECMEGSDALALRLACIGDEMDVSLRAPRLAQLSEVAMHSLGLAFIYDQTEDIRDVLRSFMDGFTTLKENIMRFWRSPNPGSWVSCEQVLLALLLLLALLLPLLSGGLHLLLK
notes: Endogenous protein from total cell extract of the human cell line 293T, untreated or etoposide-treated; also called BIK protein
binding result (GRP94 [4]): no binding | binding result (calreticulin): no binding | binding result (calnexin): no binding | binding result (GST protein): no binding
